Data taken from US20170189419A1, “PHARMACEUTICAL COMPOSITION FOR TREATING PROSTATE CANCER” (MA SHEN KAI RUEI CO., LTD., priority 2015, published 2017).

Key:
[1] = tested on: human prostate-cancer cells PC3; experiment: MTT survival assay, PC3 prostate cancer cells; type: cell-based; details: for half-maximal inhibitory concentration (IC50): PC3 cells; for survival rate / growth of prostate cancer cell: PC-3 cells, compound isolated from Extraction A
From the text: (§1) According to the present invention, the effects such as treating Prostate cancer, inhibiting the growth of Prostate cancer cell and others, of Antroquinonol B (AnQB) and/or Anctin K (AnK) may be tested by using any of the test methods used in the prior arts, for example, MTT assay of using 3-(4, 5-dimethylthiazol-2-yl)-2, S-diphenyl tetrazolium bromide (MTT) to determine cell survival rates of Prostate cancer cell lines.
(§2) The Antroquinonol B (AnQB) and Anctin K (AnK) separately isolated from the Extraction A of Example 1 were added into the culture media of human prostate-cancer cells, PC3 or DU-145, to test for tumor cell survival by using anti-cancer drug screen model. This survival assay was carried out with the widely known MTT (3-[4,5-dimethylthiazol-2-yl]2,5-diphenyltetrazolium bromide) assay.
(§3) The human prostate cancer cell lines, PC-3 and DU-145 were cultivated in media containing fetal calf serum for 18 hours. The proliferated cells were washed once with PBS, then treated with 1× trypsin-EDTA and centrifuged at 2500 rpm for […]. The supernatant was discarded and the cell pellet was re-suspended in 200 ml of fresh culture medium by gently shaking. The cells were placed in a 96-well plate.
(§4) Subsequently, the plates were read on an ELISA reader to determine the survival rates. The half maximal inhibitory concentration (IC50) values were calculated and results of ex vivo survival assay were thus obtained.
(§5) By using the same manner as the method described above, respectively human Prostate cancer cell line PC-3 and DU-145 was cultured. After then, the pharmaceutical compositions A˜F of the present invention was applied separately, and then MTT assay for each sample was measured to assess the inhibition effectiveness of various cancer cell activity while using pharmaceutical compositions A˜F of the present invention.

[2] = tested on: human prostate-cancer cells DU-145; experiment: MTT survival assay, DU-145 prostate cancer cells; type: cell-based; details: DU-145 cells; for survival rate / growth of prostate cancer cell: compound isolated from Extraction A
From the text: as §1, §2, §3, §4, §5

| SMILES | half-maximal inhibitory concentration (IC50) [1] | survival rate / growth of prostate cancer cell [1] | half-maximal inhibitory concentration (IC50) [2] | survival rate / growth of prostate cancer cell [2] |
| --- | --- | --- | --- | --- |
| C=C(CC[C@@H](C(=O)O)[C@H]1CC[C@@]2(C)C3=CC[C@H]4C(C)(C)[C@@H](O)CC[C@]4(C)C3=CC[C@]12C)C(C)C [Anctin K] | relatively low | can inhibit the growth | relatively low | can inhibit the growth |
| COC1=C(OC)[C@H](O)[C@H](C/C=C(\C)CC/C=C(/C)C/C=C/C(C)(C)O)[C@@H](C)C1=O [Antroquinonol B] | relatively low | can inhibit the growth | relatively low | can inhibit the growth |
